Tested on: patients with fasting triglyceride levels >200 mg/dl and <500 mg/dl despite statin therapy
Experiment: 12-week study: lipid profile (TC, LDL-C, HDL-C, non-HDL-C, VLDL-C, VLDL-TG, RLP-C)
Assay type: in vivo, human
Settings: for Non-HDL-C, Diff from pbo (Hodges-Lehmann median difference) / Non-HDL-C, EOT (Week 12 endpoint) median / LDL-C Median % chg from BL / LDL-C, Diff from pbo (Hodges-Lehmann median difference) / LDL-C, EOT (Week 12 endpoint) median / Non-HDL-C Median % chg from BL / LDL-C Diff from pbo (median % chg, Hodges-Lehmann) / LDL-C EOT Median / Non-HDL-C Diff from pbo (median % chg, Hodges-Lehmann) / Non-HDL-C EOT Median: AMR 101 4 g + statin
Excerpt: Parameters (a)-(z) can be measured in accordance with any clinically acceptable methodology. For example, triglycerides, total cholesterol, HDL-C and fasting blood sugar can be sample from serum and analyzed using standard photometry techniques. VLDL-TG, LDL-C and VLDL-C can be calculated or determined using serum lipoprotein fractionation by preparative ultracentrifugation and subsequent quantitative analysis by refractometry or by analytic ultracentrifugal methodology. Apo A1, Apo B and hsCRP can be determined from serum using standard nephelometry techniques. Lipoprotein (a) can be determined from serum using standard turbidimetric immunoassay techniques. LDL particle number and particle size can be determined using nuclear magnetic resonance (NMR) spectrometry. Remnants lipoproteins and LDL-phospholipase A2 can be determined from EDTA plasma or serum and serum, respectively, using enzymatic immunoseparation techniques. Oxidized LDL, intercellular adhesion molecule-1 and interleukin-2 levels can be determined from serum using standard enzyme immunoassay techniques. These techniques are described in detail in standard textbooks, for example Tietz Fundamentals of Clinical Chemistry, 6th Ed. (Burtis, Ashwood and Borter Eds.), WB Saunders Company.
A multi-center, placebo-controlled, randomized, double-blind, 12-week study was performed to evaluate the efficacy and safety of >96% E-EPA in patients with fasting triglyceride levels >200 mg/dl and <500 mg/dl despite statin therapy (the mean of two qualifying entry values needed to be >185 mg/dl and at least one of the values needed to be >200 mg/dl). The primary objective of the study was to determine the efficacy of >96% E-EPA 2 g daily and 4 g daily, compared to placebo, in lowering fasting TG levels in patients with high risk for cardiovascular disease and with fasting TG levels 200 mg/dl and <500 mg/dl, despite treatment to LDL-C goal on statin therapy.
The secondary objectives of this study were the following: • 1. To determine the safety and tolerability of >96% E-EPA 2 g daily and 4 g daily; • 2. To determine the effect of >96% E-EPA on lipid and apolipoprotein profiles including total cholesterol (TC), non-high-density lipoprotein cholesterol (non-HDL-C), low density lipoprotein cholesterol (LDL-C), high density lipoprotein cholesterol (HDL-C), and […]; • 3. To determine the effect of >96% E-EPA on lipoprotein associated phospholipase A2 (Lp-PLA2) from baseline to week 12; • 4. To determine the effect of >96% E-EPA on low-density lipoprotein (LDL) particle number and size; • 5. To determine the effect of >96% E-EPA on oxidized LDL; • 6. To determine the effect of >96% E-EPA on fasting plasma glucose (FPG) and hemoglobin A1c (HbA1c); • 7. To determine the effect of >96% E-EPA on insulin resistance; • 8. To determine the effect of >96% E-EPA on high-sensitivity C-reactive protein (hsCRP); • 9. To determine the effects of >96% E-EPA 2 g daily and 4 g daily on the incorporation of fatty acids into red blood cell membranes and into plasma phospholipids; • 10. To explore the relationship between baseline fasting TG levels and the reduction in fasting TG levels; and • 11. To explore the relationship between changes of fatty acid concentrations in plasma and red blood cell membranes, and the reduction in fasting TG levels.
The primary efficacy variable for the double-blind treatment period was percent change in TG from baseline to Week 12 endpoint. […]

[1] = Diabetes No, Week 12 endpoint, MITT
[2] = Diabetes Yes, Week 12 endpoint, MITT
[3] = Non-statin Washout No, Week 12 endpoint, MITT
[4] = Non-statin Washout Yes, Week 12 endpoint, MITT
[5] = baseline TG tertile Highest (≥289.5 mg/dL), Week 12 endpoint, MITT
[6] = baseline TG tertile Lowest (<230.5 mg/dL), Week 12 endpoint, MITT
[7] = baseline TG tertile Middle (230.5 to <289.5 mg/dL), Week 12 endpoint, MITT
[8] = AMR101 4 g/d + statin, Week 12 endpoint, MITT
[9] = AMR101 4 g/d + statin, percent change from baseline to Week 12 endpoint, MITT
[10] = IPE 4 g/day (n = 216), 12 weeks, patients with lipoprotein data
[11] = IPE 4 g/day vs placebo, 12 weeks, Hodges-Lehmann median

SMILES: CC/C=C\C/C=C\C/C=C\C/C=C\C/C=C\CCCC(=O)OCC [AMR101, ethyl eicosapentaenoate]
- Non-HDL-C, Diff from pbo (Hodges-Lehmann median difference) (Atorva subgroup, MITT): −13.5
- Non-HDL-C, EOT (Week 12 endpoint) median (Atorva subgroup, MITT): 122.0
- LDL-C Median % chg from BL (Rosuva subgroup, MITT): −3.8%
- LDL-C, Diff from pbo (Hodges-Lehmann median difference) (Rosuva subgroup, MITT): −14.8
- LDL-C, EOT (Week 12 endpoint) median (Rosuva subgroup, MITT): 82.5
- Non-HDL-C Median % chg from BL (Rosuva subgroup, MITT): −5.5%
- Non-HDL-C, Diff from pbo (Hodges-Lehmann median difference) (Rosuva subgroup, MITT): −20.0
- Non-HDL-C, EOT (Week 12 endpoint) median (Rosuva subgroup, MITT): 118.0
- LDL-C Median % chg from BL (Simva subgroup, MITT): 1.5%
- LDL-C, Diff from pbo (Hodges-Lehmann median difference) (Simva subgroup, MITT): −5.4
- LDL-C, EOT (Week 12 endpoint) median (Simva subgroup, MITT): 83.0
- Non-HDL-C Median % chg from BL (Simva subgroup, MITT): −4.3%
- Non-HDL-C, Diff from pbo (Hodges-Lehmann median difference) (Simva subgroup, MITT): −11.1
- Non-HDL-C, EOT (Week 12 endpoint) median (Simva subgroup, MITT): 125.0
- LDL-C Median % chg from BL (Statin Potency High, MITT): 5.4%
- LDL-C, Diff from pbo (Hodges-Lehmann median difference) (Statin Potency High, MITT): −2.9
- LDL-C, EOT (Week 12 endpoint) median (Statin Potency High, MITT): 82.0
- Non-HDL-C Median % chg from BL (Statin Potency High, MITT): −6.3%
- Non-HDL-C, Diff from pbo (Hodges-Lehmann median difference) (Statin Potency High, MITT): −15.8
- Non-HDL-C, EOT (Week 12 endpoint) median (Statin Potency High, MITT): 118
- LDL-C Median % chg from BL (Statin Potency Low, MITT): 7.8%
- LDL-C, Diff from pbo (Hodges-Lehmann median difference) (Statin Potency Low, MITT): 12.4
- LDL-C, EOT (Week 12 endpoint) median (Statin Potency Low, MITT): 84.5
- Non-HDL-C Median % chg from BL (Statin Potency Low, MITT): −1.4%
- Non-HDL-C, Diff from pbo (Hodges-Lehmann median difference) (Statin Potency Low, MITT): 2.4
- Non-HDL-C, EOT (Week 12 endpoint) median (Statin Potency Low, MITT): 131
- LDL-C Median % chg from BL (Statin Potency Medium, MITT): −2.2%
- LDL-C, Diff from pbo (Hodges-Lehmann median difference) (Statin Potency Medium, MITT): −10.0
- LDL-C, EOT (Week 12 endpoint) median (Statin Potency Medium, MITT): 84.0
- Non-HDL-C Median % chg from BL (Statin Potency Medium, MITT): −4.3%
- Non-HDL-C, Diff from pbo (Hodges-Lehmann median difference) (Statin Potency Medium, MITT): −13.9
- Non-HDL-C, EOT (Week 12 endpoint) median (Statin Potency Medium, MITT): 124
- LDL-C Diff from pbo (median % chg, Hodges-Lehmann) [1]: −5.3%
- LDL-C EOT Median [1]: 83.5 mg/dL
- LDL-C Median % chg from BL [1]: 1.4%
- Non-HDL-C Diff from pbo (median % chg, Hodges-Lehmann) [1]: −11.3′ %
- Non-HDL-C EOT Median [1]: 126 mg/dL
- Non-HDL-C Median % chg from BL [1]: −0.9%
- LDL-C Diff from pbo (median % chg, Hodges-Lehmann) [2]: −6.3%
- LDL-C EOT Median [2]: 83.0 mg/dL
- LDL-C Median % chg from BL [2]: 2.0%
- Non-HDL-C Diff from pbo (median % chg, Hodges-Lehmann) [2]: −14.4%
- Non-HDL-C EOT Median [2]: 121 mg/dL
- Non-HDL-C Median % chg from BL [2]: −5.5%
- LDL-C Diff from pbo (median % chg, Hodges-Lehmann) [3]: −5.1%
- LDL-C EOT Median [3]: 83.5 mg/dL
- LDL-C Median % chg from BL [3]: 2.5%
- Non-HDL-C Diff from pbo (median % chg, Hodges-Lehmann) [3]: −4.8%
- Non-HDL-C EOT Median [3]: 122 mg/dL
- Non-HDL-C Median % chg from BL [3]: −4.9%
- LDL-C Diff from pbo (median % chg, Hodges-Lehmann) [4]: −7.5%
- LDL-C EOT Median [4]: 80.0 mg/dL
- LDL-C Median % chg from BL [4]: −1.4%
- Non-HDL-C Diff from pbo (median % chg, Hodges-Lehmann) [4]: −14.4%
- Non-HDL-C EOT Median [4]: 124 mg/dL
- Non-HDL-C Median % chg from BL [4]: −5.4%
- LDL-C Diff from pbo (median % chg, Hodges-Lehmann) [5]: 0%
- LDL-C EOT Median [5]: 83.0
- LDL-C Median % chg from BL [5]: 4.8%
- Non-HDL-C Diff from pbo (median % chg, Hodges-Lehmann) [5]: −17.6%
- Non-HDL-C EOT Median [5]: 130
- Non-HDL-C Median % chg from BL [5]: −6.9%
- LDL-C Diff from pbo (median % chg, Hodges-Lehmann) [6]: −12.2%
- LDL-C EOT Median [6]: 83.0
- LDL-C Median % chg from BL [6]: −3.9%
- Non-HDL-C Diff from pbo (median % chg, Hodges-Lehmann) [6]: −13.8%
- Non-HDL-C EOT Median [6]: 118
- Non-HDL-C Median % chg from BL [6]: −2.0%
- LDL-C Diff from pbo (median % chg, Hodges-Lehmann) [7]: −5.8%
- LDL-C EOT Median [7]: 82.5
- LDL-C Median % chg from BL [7]: 2.1%
- Non-HDL-C Diff from pbo (median % chg, Hodges-Lehmann) [7]: −9.5%
- Non-HDL-C EOT Median [7]: 124
- Non-HDL-C Median % chg from BL [7]: −4.0%
- HDL-C Week 12 EP Median (IQR) (AMR101 4 g/d + statin, MITT): 37.0 (13.0) mg/dL
- LDL-C Week 12 EP Median (IQR) (AMR101 4 g/d + statin, MITT): 83.0 (31.0) mg/dL
- Non-HDL-C Week 12 EP Median (IQR) (AMR101 4 g/d + statin, MITT): 122.0 (39.0) mg/dL
- RLP-C Week 12 EP Median (IQR) (AMR101 4 g/d + statin, MITT): 10.0 (6.0) mg/dL
- Total cholesterol Week 12 EP Median (IQR) (AMR101 4 g/d + statin, MITT): 162.0 (38.0) mg/dL
- VLDL-C Week 12 EP Median (IQR) (AMR101 4 g/d + statin, MITT): 38.0 (22.0) mg/dL
- VLDL-TG Week 12 EP Median (IQR) (AMR101 4 g/d + statin, MITT): 147.0 (88.0) mg/dL
- HDL-C Percent change from Baseline Median (IQR) [8]: −1.0 (18.2) %
- LDL-C Percent change from Baseline Median (IQR) [8]: 1.5 (26.6) %
- Non-HDL-C Percent change from Baseline Median (IQR) [8]: −5.0 (21.3) %
- RLP-C Percent change from Baseline Median (IQR) [8]: −24.0 (45.5) %
- Total cholesterol Percent change from Baseline Median (IQR) [8]: −3.2 (16.8) %
- VLDL-C Percent change from Baseline Median (IQR) [8]: −12.1 (47.9) %
- VLDL-TG Percent change from Baseline Median (IQR) [8]: −19.2 (46.2) %
- HDL-C Difference from placebo Estimated median [9]: −4.5%
- LDL-C Difference from placebo Estimated median [9]: −6.2%
- Non-HDL-C Difference from placebo Estimated median [9]: −13.6%
- RLP-C Difference from placebo Estimated median [9]: −25.8%
- Total cholesterol Difference from placebo Estimated median [9]: −12.0%
- VLDL-C Difference from placebo Estimated median [9]: −24.4%
- VLDL-TG Difference from placebo Estimated median [9]: −26.5%
- HDL-C, Change From Baseline, % (median) [10]: −2.2%
- HDL-C, End of Treatment (median) [10]: 36.5 mg/dL
- LDL-C, Change From Baseline, % (median) [10]: 2.1%
- LDL-C, End of Treatment (median) [10]: 83.0 mg/dL
- Non-HDL-C, Change From Baseline, % (median) [10]: −5.1%
- Non-HDL-C, End of Treatment (median) [10]: 122.0 mg/dL
- HDL-C, Median Change From Baseline IPE 4 g/day vs Placebo, % [11]: −5.0%
- LDL-C, Median Change From Baseline IPE 4 g/day vs Placebo, % [11]: −5.2%
- Non-HDL-C, Median Change From Baseline IPE 4 g/day vs Placebo, % [11]: −13.5%

— patent publication US11285127B2, “Compositions and methods for lowering triglycerides without raising LDL-C levels in a subject on concomitant statin therapy” (Amarin Pharmaceuticals Ireland Limited, priority 2013, dated 2022)
